Experimental data taken from patent US20090233910A1, “Npy antagonists, preparation and uses” (CEREP, priority 2005, published 2009).

Assays:
NPY Y2 receptor = molecular target: T1, NPY Y2 receptor (Homo sapiens, UniProt P49146); assay: Binding test to the NPY Y2 receptor ([125I]-PYY, KAN.TS cell suspension)
T1 construct: host or cells: KAN.TS cells (whole-cell suspension)
T1 sequence (P49146 1-381): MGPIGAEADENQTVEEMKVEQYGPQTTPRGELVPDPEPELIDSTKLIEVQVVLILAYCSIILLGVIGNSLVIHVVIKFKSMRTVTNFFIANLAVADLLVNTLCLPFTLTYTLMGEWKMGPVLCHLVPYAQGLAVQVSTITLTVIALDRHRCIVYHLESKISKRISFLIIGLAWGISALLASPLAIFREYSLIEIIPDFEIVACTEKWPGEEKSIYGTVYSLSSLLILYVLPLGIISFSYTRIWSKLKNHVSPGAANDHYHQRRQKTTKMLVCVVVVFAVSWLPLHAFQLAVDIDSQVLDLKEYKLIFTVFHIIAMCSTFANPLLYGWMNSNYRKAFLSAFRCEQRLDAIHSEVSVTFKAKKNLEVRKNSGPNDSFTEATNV
Method: The KAN.TS cells (Amersham RPNQ0081) are cultured at 37° C. in DMEM Glutamax medium (Life Technology ref. 61965026) containing 15% foetal calf serum (Invitrogen), 1% L-Glutamine (Invitrogen ref.250300-032), 50 IU/ml penicillin and 50 μg/ml of streptomycin (Invitrogen ref. 15070022) in a humid atmosphere containing 5% CO2.
After aspirating the culture medium, the cells are washed with phosphate buffer pH 7.4 (Sigma ref. D5652), then lifted with a solution of PBS^−, 0.5 mM EDTA (ethylenediaminetetraacetic acid) (Sigma ref ED 2SS). […] The cells are counted and centrifuged at 1500 rpm for 10 min then resuspended in the freeze buffer and aliquoted into ten million cells per millilitre of freeze buffer, and stored at −70° C.
The cell suspension with 25000 cells/ml is incubated 1 h at 37° C. in an incubation buffer pH 7.4 containing 50 mM HEPES/NaOH, 2.5 mM calcium chloride, 1 mM magnesium chloride, 0.025% sodium azide, 1 mg/ml bovine albumin and 15 pM of [^125I]-PYY (Perkin Elmer, NEX341). […] The radioactivity deposited on the filter is measured by liquid scintillation count (TopCount, Packard). Non-specific binding is determined in the presence of 1 μM NPY (Bachem, H3322). […]

human Y5 receptor = molecular target: T2, human Y5 receptor (Homo sapiens, UniProt Q15761); assay: Binding test to the NPY Y5 receptor ([125I]-human PYY, CHO cell membranes)
T2 construct: expressed in transfected cells; host or cells: CHO cells (CHO-Y5H), membrane preparation
T2 sequence (Q15761 1-445): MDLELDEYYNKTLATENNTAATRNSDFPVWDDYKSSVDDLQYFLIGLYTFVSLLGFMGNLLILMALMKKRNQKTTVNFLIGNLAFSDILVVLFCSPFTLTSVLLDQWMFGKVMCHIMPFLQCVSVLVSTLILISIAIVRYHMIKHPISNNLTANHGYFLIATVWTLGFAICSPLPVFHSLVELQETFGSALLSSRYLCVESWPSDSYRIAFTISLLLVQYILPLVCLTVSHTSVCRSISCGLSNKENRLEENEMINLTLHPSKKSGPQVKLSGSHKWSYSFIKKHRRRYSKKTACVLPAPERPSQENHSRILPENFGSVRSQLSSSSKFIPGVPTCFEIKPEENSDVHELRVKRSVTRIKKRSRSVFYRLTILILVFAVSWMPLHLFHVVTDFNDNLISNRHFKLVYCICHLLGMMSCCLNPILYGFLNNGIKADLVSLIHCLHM
Method: The CHO cells expressing either the Y4 or the Y5 human recombinant receptor are cultured in DMEM medium to which is added 5% dialysed foetal calf serum, 10 mM Hepes buffer and 0.8 g/l sodium bicarbonate. They are lifted from their support using a 36 mM citrate buffer without trypsin and without EDTA, and washed in PBS buffer free of Ca^2+ and of Mg^2+. The cell residues are stored at (−80° C.) until fractioning.
The cell residue is redissolved in 10 mM TRIS buffer, 3 mM MgCl2, pH 7.4 and separated with polytron. After centrifuging at 20 000×g the residue is redissolved in this same buffer, potter separated and aliquoted for storage in liquid nitrogen to around 5 mg/ml proteins.
Approximately 80 μg of membranes of CHO cells having stable expression of the human Y5 receptor are incubated for 60 min at 30° C. in 200 μl Krebs-Ringer buffer (pH 7.4) containing 20 mM Hepes, 1% bovine serum albumin, 0.25 mg/ml bacitracin and 0.1 nM of [^125I]-human PYY (Perkin Elmer, NEX 341). The reaction is halted by filtering through Wathman GF/C filters and washing with 3 times 4 ml of buffer at 4° C. The radioactivity deposited on the filter is counted with a gamma counter (Whizard 1470, Wallac, Perkin Elmer). Non-specific binding is determined in the presence of 0.3 μM porcine NPY (Neosystem, SC116). […]

- IC50 (NPY Y2 receptor; KAN.TS cells, [125I]-PYY): > 10000 nM
- inhibition at 10 µM (NPY Y2 receptor; inhibition of specific binding at 10 μM of compound, read-out: % Inh at 10 μM Y2): 10%
- IC50 (human Y5 receptor; CHO membranes, human Y5, [125I]-human PYY): > 10000 nM
- inhibition at 10 µM (human Y5 receptor; inhibition of specific binding at 10 μM of compound, read-out: % Inh at 10 μM Y5): 0%
Structure (SMILES): CCCCN1CCC(Oc2ccc(C(=O)Nc3ccc(Oc4ccc(NC(=O)NC(CC)CC)cc4OC)cc3)cc2)CC1 [Example 103, 4-(1-Butyl-piperidin-4-yloxy)-N-(4-{4-[3-(1-ethyl-propyl)-ureido]-2-methoxy-phenoxy}-phenyl)-benzamide]
